# Laboratory results as given in US6414031B1, “Bisoximether derivatives, methods and intermediate products for the production thereof, and their use for combating fungicidal pests and animal pests” (BASF Aktiengesellschaft, priority 1998, dated 2002).
# Legend:
# Assay type in all cases: in vivo
# [1] = tested on: Nephotettix cincticeps; experiment: Action against Nephotettix cincticeps, contact action (filter disks); settings: treated filter disks, adult leafhoppers, mortality after 24 hours
# Source text: (§1) The active ingredients were formulated
# (§2) a. as a 0.1% strength solution in acetone or
# (§3) b. as a 10% emulsion in a mixture of 70% by weight of cyclohexanone, 20% by weight of Nekanil® LN (Lutensol® AP6, wetter having emulsifying and dispersant action, based on ethoxylated alkylphenols) and 10% by weight of Wettol® EM (non-ionic emulsifier based on ethoxylated castor oil)
# (§4) and diluted to give the desired concentration, using acetone in the case of a. and water in the case of b.
# Filter disks (Ø 9 cm) were treated with 1 ml of aqueous formulations of the active ingredient and subsequently populated with five adult leafhoppers. The mortality was determined after 24 hours.
# [2] = tested on: Puccinia recondita; experiment: Curative activity against Puccinia recondita on wheat (leaf rust); settings: 1 ppm, wheat sprayed 1 day after infection, assessed after 7 days, untreated 90%
# Source text: as §3, with “The active ingredients, separately or together, were formulated” for “b.”, “[…],” for “cyclohexanone,”, “oil) and diluted with water to give the desired concentration.” for “oil)”
# Leaves of wheat seedling cv. “Kanzler” grown in pots were dusted with leaf rust spores (Puccinia recondita). The pots were then placed for 24 hours into a chamber with high atmospheric humidity (90 to 95%) and 20 to 22° C. During this time, the spores germinated and the germ tubes penetrated the leaf tissue. Next day, the infected plants were sprayed to runoff with an aqueous active ingredient preparation made with a stock solution consisting of 10% of active ingredient, 63% of cyclohexanone and 27% of emulsifier. After the spray coating had dried on, the test plants were grown in the greenhouse for 7 days at temperatures between 20 and 22° C. and a relative atmospheric humidity of 65 to 70%. The extent of rust development on the leaves was then determined.
# [3] = tested on: Aphis fabae; experiment: Action against Aphis fabae, contact action; settings: infested dwarf beans (Vicia faba), mortality after 24 hours
# Source text: as §1, §2, §3, §4
# Severely infested dwarf beans (Vicia faba) in the four-leaf stage were treated with aqueous formulations of active ingredient. The mortality rate was determined after 24 hours.
# [4] = tested on: Nephotettix cincticeps; experiment: Action against Nephotettix cincticeps (crop spray experiment); settings: sprayed rice plants, adult leafhoppers, mortality after 24 hours
# Source text: as §1, §2, §3, §4
# Rice plants grown in pots (plant height approximately 8 cm) were sprayed to runoff point with aqueous formulations of active ingredients. After drying, the plants were populated with 20 adult leafhoppers. The mortality was determined after 24 hours.
# [5] = tested on: Plasmopara viticola; experiment: Activity against Plasmopara viticola on grape leaves (long-term action); settings: 16 ppm, grape leaves inoculated 7 days after spraying; untreated 85%
# Source text: as §3, with “The active ingredients, separately or together, were formulated” for “b.”, “[…],” for “cyclohexanone,”, “oil) and diluted with water to give the desired concentration.” for “oil)”
# Leaves of grapes cv. “Müller-Thurgaul” in pots were sprayed to runoff with aqueous active ingredient preparations made with a stock solution of 10% active ingredient, 63% cyclohexanone and 27% of emulsifier. In order to be able to assess the long-term action of the substances, the spray coating was allowed to dry off and the plants were then placed in the greenhouse for 7 days. Only then were the leaves inoculated with an aqueous zoospore suspension of Plasmopara viticola. Then, the vines were first placed for 48 hours into a water-vapor-saturated chamber at 24° C. and then for 5 days in the greenhouse at temperatures between 20 and 30° C. After this time, the plants were returned to a humid chamber for 16 hours to accelerate sporangiophore eruption for 16 hours. The extent of the disease development on the undersides of the leaves was then determined visually.
SMILES,limit concentration (lowest concentration with 80 to 100% inhibition or mortality) [1] [mg],disease level (extent of rust development on the leaves) [2] [%],limit concentration (lowest concentration with 80 to 100% inhibition or mortality) [3] [ppm],limit concentration (lowest concentration with 80 to 100% inhibition or mortality) [4] [ppm],disease level (undersides of the leaves) [5] [%]
CC=C(C(=O)OC)c1ccccc1CON=C(C)C(=NOC)C1CCC(C)CC1 (centres unmarked) [Compound I-4],0.04,,,,
COC=C(C(=O)OC)c1ccccc1CON=C(C)C(=NOC)C1CCCCC1 [A],0.2,90,100,400,
CNC(=O)C(=NOC)c1ccccc1CON=C(C)C(=NOC)C1CCCCC1 [D],,90,,,60
CC=C(C(=O)OC)c1ccccc1CON=C(C)C(=NOC)C1CCCCC1 [B],0.2,,,400,
COC=C(C(=O)OC)c1ccccc1CON=C(C)C(=NOC)C1CCC(C)CC1 (centres unmarked) [Compound I-3],0.04,,,,
CON=C(C(=O)OC)c1ccccc1CON=C(C)C(=NOC)C1CCCCC1 [C],,,100,,
